Laboratory results: EP0003415A2, “Beta-Lactam compounds, processes for their preparation,compositions containing them and intermediates of use in their preparation” (GLAXO GROUP LIMITED, priority 1978, dated 1979)
Converted amounts (≈) assume the structure as drawn.

Experiments:
Test in all cases: Determination of Minimum Inhibitory Concentrations (MIC), agar dilution
Assay type in all cases: cell-based
Micrococcus Sp 1810E = details: SP1810E, clinical isolate, Oxoid No.1 Nutrient agar, approximately 10^5 colony forming units, read after 18 hours at 37°C
Source text: (§1) Biological testing of two of the compounds of the invention has provided the results shown below; the test compounds are identified by their Example Numbers: 1. Determination of Minimum Inhibitory Concentrations (MIC) Serial two-fold dilutions of freshly prepared test solutions were made into Oxoid No.l Nutrient agar with or without added enrichment and poured into petri […] Plates were inoculated with a multipoint inoculator with inoculum containing approximately 10^5 colony forming units of the organisms shown in the following Tables, all of which organisms are clinical isolates. The MIC, quoted in the Table as μg/ml, was read after 18 hours incubation at 37°C as the lowest concentration which inhibited growth.

E. cloacae 1051E = details: Enterobacter cloacae, clinical isolate, Oxoid No.1 Nutrient agar, approximately 10^5 colony forming units, read after 18 hours at 37°C
Source text: as §1

K. aerogenes 1522E = details: Klebsiella aerogenes, clinical isolate, Oxoid No.1 Nutrient agar, approximately 10^5 colony forming units, read after 18 hours at 37°C
Source text: as §1

S. marcescens 1324E = details: Serratia marcescens, clinical isolate, Oxoid No.1 Nutrient agar, approximately 10^5 colony forming units, read after 18 hours at 37°C
Source text: as §1

H. influenzae 1184E = details: Haemophilus influenzae, clinical isolate, Oxoid No.1 Nutrient agar, approximately 10^5 colony forming units, read after 18 hours at 37°C
Source text: as §1

Staph.aureus 853E = details: Staphylococcus aureus, clinical isolate, Oxoid No.1 Nutrient agar, approximately 10^5 colony forming units, read after 18 hours at 37°C
Source text: as §1

E. cloacae 1321E = details: Enterobacter cloacae, clinical isolate, Oxoid No.1 Nutrient agar, approximately 10^5 colony forming units, read after 18 hours at 37°C
Source text: as §1

E. coli 851E = details: Escherichia coli, clinical isolate, Oxoid No.1 Nutrient agar, approximately 10^5 colony forming units, read after 18 hours at 37°C
Source text: as §1

Row | MIC (Micrococcus Sp 1810E) | MIC (E. cloacae 1051E) | MIC (K. aerogenes 1522E) | MIC (S. marcescens 1324E) | MIC (H. influenzae 1184E) | MIC (Staph.aureus 853E) | MIC (E. cloacae 1321E) | MIC (E. coli 851E) | SMILES
1 | 0.1 µg/mL (≈ 0.438 µM) | 16 µg/mL (≈ 70.1 µM) | 16 µg/mL (≈ 70.1 µM) | 31 µg/mL (≈ 136 µM) | 16 µg/mL (≈ 70.1 µM) | 0.5 µg/mL (≈ 2.19 µM) | 8 µg/mL (≈ 35 µM) | 8 µg/mL (≈ 35 µM) | NCCCC1=C(C(=O)O)N2C(=O)CC2S1 (racemic) [Example 19, (5RS)-2-[3-Aminopropyl]-pen-2-em-3-carboxylate]
2 | 0.2 µg/mL (≈ 0.934 µM) | 8 µg/mL (≈ 37.3 µM) | 16 µg/mL (≈ 74.7 µM) | 31 µg/mL (≈ 145 µM) | 62 µg/mL (≈ 289 µM) | 1 µg/mL (≈ 4.67 µM) | 8 µg/mL (≈ 37.3 µM) | 8 µg/mL (≈ 37.3 µM) | NCCC1=C(C(=O)O)N2C(=O)CC2S1 (racemic) [Example 4, (5RS)-2-(2-Aminoethyl)pen-2-em-3-carboxylic acid]
